Data: US6849596B1, “Regulatory/unfolding peptides of ezrin” (priority 1999, dated 2005)
Entries after “also recorded” stand apart in the source; their conditions may differ. Where no end group is shown, it is not given here.

Tests used:
[1] = tested on: transplanted sarcoma of the uterus SM-322; experiment: Transplanted mouse sarcoma SM-322 model; type: in vivo, CBA mice; settings: control 12-16
[2] = tested on: transplanted sarcoma of the uterus SM-322; experiment: Transplanted mouse sarcoma SM-322 model; type: in vivo, CBA mice; settings: for Percent decrease in tumour volume relative to control: SM-322
Source text: Anticancer Activity of Hepreceptor Peptides on the Growth of Transplanted Sarcoma of the Uterus SM-322 and on Cancer of the Uterine Cervix CUS-5 Performed in CBA Mice Using Rupe312 and Rupe414 as Examples Transplanted mouse sarcoma SM-322 model (endothelial tumour). Primary tumours of the uterus were induced in female mice using 1.2 dimethylhydrazine. A few primary tumours were transplanted into syngeneic mice. The first visible nodules started to appear at the point of transplation after 4 days. The life expectancy of the mice with transplanted tumours was 22-24 days. […] The tumours were introduced as a 0.5 ml of tumour suspension (1 g tumour per 10 ml of Igla medium) and ten mice used in each treatment group. […] The average percent decrease of tumour volume relative to the control group was recorded at three time points. The longevity of the mice in the treatment groups and control groups was compared and the histology of the tumours between control and treatment groups was compared.

[3] = tested on: human Peripheral Blood Mononuclear Cells; experiment: In vitro activation of human PBMC, tritiated thymidine incorporation; type: cell-based; settings: for incorporation of 3H thymidine: three days, Control 370
Experimental: Peripheral Blood Mononuclear Cells (PBMC) were separated from the peripheral blood of a […] donor using the standard method of fractionation in a ficoll gradient. The PBMC were suspended in culture medium containing RPMI1640 medium plus 10% fetal calf serum, 1 mM L-glutamin and antibiotics (BM). The cell suspension was placed in wells of a 96 hole microwell plate for cell cultivation, (100 microliters of suspension containing 100,000 cells per well). […] The negative control well contained BM but no peptide. The plate was incubated at 37° C. for three days then radioactive ^3H thymidine was added to a final concentration of 1 microcurie per ml. The incorporation of ^3H thymidine into the DNA of the cells was measured using a betacounter using standard procedures. The experiment was repeated twice and the results expressed as an average of the two experiments in radioactive counts per minute.

[4] = tested on: transplanted cervical cancer CUC-5; experiment: Transplanted mouse cervical cancer model CUC-5; type: in vivo, CBA mice; settings: for Percent decrease in tumour volume relative to control / Days of life expectancy: CUC-5; for Days of life expectancy: control 47-76
Source text: Anticancer Activity of Hepreceptor Peptides on the Growth of Transplanted Sarcoma of the Uterus SM-322 and on Cancer of the Uterine Cervix CUS-5 Performed in CBA Mice Using Rupe312 and Rupe414 as Examples
Transplanted mouse cervical cancer model CUC-5 (epithelial tumour)
Primary tumours were induced in female mice using methylcholantrene. A few primary turnouts were then auto-transplanted into the uterine cervix. The life expectancy of mice with transplanted tumours was 43 days.
CBA female mice weighed 21.4=/−1.2 g. and were 2-3 months old. The tumours were introduced as a 0.5 ml of tumour suspension (1 g tumour per 10 ml of Igla medium) and ten mice used in each treatment group.
Lyophylised peptide were dissolved in sterile physiological saline immediately before use in three concentrations. 0.5 ml of solution was injected twice weekly into the peritoneum of the mice for the duration of the experiment. Three different concentrations of peptide were used leading to three final doses per injection per mouse of 10, 1.0 and 0.1 micrograms.
The average percent decrease of tumour volume relative to the control group was recorded at three time points. The longevity of the mice in the treatment groups and control groups was compared and the histology of the tumours between control and treatment groups was compared.

[5] = tested on: HLA Class I on human White Blood Cells; experiment: Expression of MHC (HLA) Class I on human White Blood Cells; type: cell-based; settings: 0.003 micrograms per ml
Source text: A cell specific effect of this activation was an increase in the population of monocytes expressing MHC Class I and a decrease in the population of CD8 lymphocytes expressing MHC Class I.

activated macrophages = experiment: Induction of activated macrophages in mice (peritoneal exsudate); type: in vivo
Experimental: Groups of three mice (CDAxC57B1)F1 weighing 22-24 g were injected abdominally with each peptide solution of 1.0 microgram of peptide dissolved in 0.5 ml of physiological saline. After 24 hours the animals were killed using neck vertebrae dislocation and 5 ml of Hanks solution was injected into the abdomen. The abdomen was massaged for 30 seconds and then the peritoneal liquid was collected. The collected liquid was filtered using a nylon filter into siliconised tubes containing 1.5 mg/ml EDTA. The number of nucleus containing cells in […] of filtrate were then assessed under microscopic examination using a Nihon hemocytometer. The cells were pelleted by centrifugation for 5 minutes at 800 g, the pellet was resuspended in fetal calf serum, the cell suspension was dropped on to a glass microscope slide and dried then fixed in methanol and stained with Romanovski's colouring agent. Morphological analysis of the cells of the peritoneal exsudate were performed using an Opton optical microscope at 1600 magnifications. The number of lymphocytes, resting macrophages, activated macrophages, granulocytes and other cell types were assessed.

[6] = Animal toxicology and pre-clinical testing of HEP1; settings: rat and rabbit
[7] = 0.1 Microg/mouse IP twice weekly
[8] = 10 Microg/mouse IP twice weekly
[9] = 0.1 Microg/mouse IP twice weekly, Day 8
[10] = 0.1 Microg/mouse IP twice weekly, Day 12
[11] = 1 Microg/mouse IP twice weekly, Day 8
[12] = 1 Microg/mouse IP twice weekly, Day 12
[13] = 10 Microg/mouse IP twice weekly, Day 8
[14] = 10 Microg/mouse IP twice weekly, Day 12

## KRRETVEREKE (Hepreceptor peptide) [Rupe414]
[1]; [7]
  Days of life expectancy: 12 to 19 days
[1]; 1 Microg/mouse IP twice weekly
  Days of life expectancy: 12 to 20 days
[1]; [8]
  Days of life expectancy: 13 to 20 days
[2]; [9]
  Percent decrease in tumour volume relative to control: 68%
[2]; [10]
  Percent decrease in tumour volume relative to control: 39%
[2]; 0.1 Microg/mouse IP twice weekly, Day 15
  Percent decrease in tumour volume relative to control: 22%
[2]; [11]
  Percent decrease in tumour volume relative to control: 68%
[2]; [12]
  Percent decrease in tumour volume relative to control: 28%
[2]; 1 Microg/mouse IP twice weekly, Day 15
  Percent decrease in tumour volume relative to control: 43%
[2]; [13]
  Percent decrease in tumour volume relative to control: 65%
[2]; [14]
  Percent decrease in tumour volume relative to control: 43%
[2]; 10 Microg/mouse IP twice weekly, Day 15
  Percent decrease in tumour volume relative to control: 43%
[2]; both models (SM-322 and CUC-5)
  histology of the tumours: non bleeding ulcerous destruction of the centre of tumours
[3]; PBMC activation, thymidine incorporation
  activity relative to HEP1: significantly more active than HEP1; also recorded: ten fold higher activity than HEP1
[3]; PBMC proliferation
  concentration of peak activity: around 3 nanograms/ml
[3]; Peptide 0.0001 micro g/ml
  incorporation of 3H thymidine: 493 radioactive counts per minute
[3]; Peptide 0.0003 micro g/ml
  incorporation of 3H thymidine: 580 radioactive counts per minute
[3]; Peptide 0.001 micro g/ml
  incorporation of 3H thymidine: 684 radioactive counts per minute
[3]; Peptide 0.003 micro g/ml
  incorporation of 3H thymidine: 2087 radioactive counts per minute
[3]; Peptide 0.01 micro g/ml
  incorporation of 3H thymidine: 650 radioactive counts per minute
[3]; Peptide 0.03 micro g/ml
  incorporation of 3H thymidine: 596 radioactive counts per minute
[3]; Peptide 0.1 micro g/ml
  incorporation of 3H thymidine: 485 radioactive counts per minute
[3]; Peptide 0.3 micro g/ml
  incorporation of 3H thymidine: 492 radioactive counts per minute
[3]; Peptide 1 micro g/ml
  incorporation of 3H thymidine: 449 radioactive counts per minute
[3]; Peptide 3 micro g/ml
  incorporation of 3H thymidine: 437 radioactive counts per minute
[3]; Peptide 10 micro g/ml
  incorporation of 3H thymidine: 394 radioactive counts per minute
[4]; [9]
  Percent decrease in tumour volume relative to control: 50%
[4]; [10]
  Percent decrease in tumour volume relative to control: 18%
[4]; 0.1 Microg/mouse IP twice weekly, Day 19
  Percent decrease in tumour volume relative to control: 57%
[4]; [7]
  Days of life expectancy: 47 to 76 days
[4]; [11]
  Percent decrease in tumour volume relative to control: 50%
[4]; [12]
  Percent decrease in tumour volume relative to control: 16%
[4]; 1 Microg/mouse IP twice weekly, Day 19
  Percent decrease in tumour volume relative to control: 43%
[4]; 1 Microg/mouse IP twice weekly
  Days of life expectancy: 36 to 76 days
[4]; [13]
  Percent decrease in tumour volume relative to control: 50%
[4]; [14]
  Percent decrease in tumour volume relative to control: 16%
[4]; 10 Microg/mouse IP twice weekly, Day 19
  Percent decrease in tumour volume relative to control: 48%
[4]; [8]
  Days of life expectancy: 36 to 76 days
[4]; slower growing transplanted cervical cancer
  change in life expectancy: no significant increase (or decrease) in life expectancy was detected
[5]; 24 hours
  relative activity in lowering intensity of HLA expression on WBC: more active than HEP1
[5]; B and NK cells, 24 hours
  Density of cell surface expression of HLA Class I, rebased to 100 for control: 77
  Percentage of cell population expressing HLA Class I, rebased to 100 for control: 101
[5]; CD4 lymphocytes, 24 hours
  Density of cell surface expression of HLA Class I, rebased to 100 for control: 77
  Percentage of cell population expressing HLA Class I, rebased to 100 for control: 105
[5]; CD8 lymphocytes, 24 hours
  Density of cell surface expression of HLA Class I, rebased to 100 for control: 76
  Percentage of cell population expressing HLA Class I, rebased to 100 for control: 89
[5]; Granulocytes, 24 hours
  Density of cell surface expression of HLA Class I, rebased to 100 for control: 85
  Percentage of cell population expressing HLA Class I, rebased to 100 for control: 98
[5]; Monocytes/Macrophages, 24 hours
  Percentage of cell population expressing HLA Class I, rebased to 100 for control: 109
[5]; Monocytes/Macrophages, 24 hours at 37° C.
  Density of cell surface expression of HLA Class I, rebased to 100 for control: 83
Activated macrophages; 1.0 microgram peptide/mouse
  activity in increasing activated macrophages relative to HEP1: significantly more active than HEP1
Activated macrophages; 1.0 microgram peptide/mouse injected abdominally, after 24 hours, saline 1.9
  Activated macrophages as a percent of total number of cells: 8.5%

## TEKKRRETVEREKE [HEP1, TEKKRRETVEREKE]
[6]
  Chronic toxicity: negative
  Effect of 1000× therapeutic dose: negative
  Embryotoxicity: negative
  Influence on CNS and HVS: negative
  Local Irritation: negative
  Mutagenic effects: negative
  Sub-acute toxicity: negative
[6]; pharmaceutical grade HEP1
  Preliminary evaluation of toxicity: negative
